# According to US8987449B2, “Medicine for treating ischemic brain injury and its sequelae, and preparation method thereof” (Haimin Lei, priority 2011, dated 2015):
# Columns and labels:
# [1] = system: rat primary cortical neurons; test: Proliferation of primary neuronal cells by MTT and morphology observation; assay type: cell-based; conditions: 60 μM; normal neurons; control 0.7567 ± 0.1109
# Description: SD pregnant rats: pregnant for 16-18 d, certificate number: SCXK (Jing) 2006-0009, provided by BeiJing Vital River Laboratories.
# LQC-T4 (prepared by the method of example 5), the purity was ≧98%, determined by high performance liquid chromatography (HPLC), which met the requirement of the experiment. The powder was carefully sealed and preserved at 4° C. The prepared LQC-T4 was dissolved using dimethyl sulfoxide and made into […] storing liquid for use.
# Referring to the document [HongQingtao, TangYipeng, Neurons of cerebral cortex of newborn rats in in vitro primary culture, Chinese Journal of Neuroanatomy, 1994, 10(3):259-262], the pregnant 16-18 d SD rat was executed by dislocation. The fetal rat was taken out in an aseptic environment, the meninges and blood steak were stripped, the cortex was separated and cut into 1 mm^3 tissue block (all carried out on ice). The tissue block was digested at 37[…] with 0.1% pancreatic enzyme-0.02% EDTA for 20 min. Digesting was stopped using DMEM containing fetal calf serum and the number of the cells was adjusted to 5×10^5 cells ml^−1. The resultant cells were inoculated into a 96 well plate treated by 0.001% polylysine and the plate was put in a 37° C. 5% CO2 incubation box to be cultured. The cultivation liquid was changed (totally) after 48 h and add adenine arabinoside was added (final concentration is 5 μM) to inhibit the excessive proliferation of non-neurons. The cultivation liquid was changed after 48 h with fresh cultivation liquid and culture was continued. And the cultivation liquid was changed every 3 days afterward.
# The cultivation liquid was sucked away on the eighth day of neuron culture. DMEM culture-medium containing 0.15% DMSO was added to the blank group, while 60 μM, 30 μM, 15 μM LQC-T4, 60 μM tetramethylpyrazine and 60 μM vanillic acid were respectively added to the administration group. Ten parallel wells were set as a group. And they were put into a 37° C., 5% CO2 incubation box to continue culturing for 24 h.
# 5 mg/ml MTT 20 μl was added to each well at the time of 4 h before the experiment ended and the cultivation liquid was sucked away. DMSO 200 μl was added to each well. When the purple particles were completely dissolved, the enzyme-linked immune assay was used to measure the optical density at 540 nm.
# (§1) The SAS 8.2 statistical software was used to carry out the one-way ANOVA variance analysis and the difference among the groups were compared by t-test.
# ICR mice = test: Buccal respiration duration of mice after head cutting (4° C. icy water swimming model); assay type: in vivo, mouse; conditions: 80 mg/kg intragastrically once a day for 10 days, control 32.45 ± 5.49
# Description: ICR mice, half female and half male, weighing 19-21 g, certificate No.: SCXK (Jing) 2006-0009, provided by BeiJing Vital River Laboratories.
# LQC-T4, tetramethylpyrazine (TMP), vanillic acid, Nimodipine (ShanDong XinHua Pharmaceutical CO., Ltd, batch No.: 0908164)
# 160 male ICR mice were divided into 8 groups randomly by weight, each of which contained 20 mice, wherein 0.5% CMC-NA (0.2 ml·10 g^−1) was administrated intragastrically to the blank control group; 6.7 mg·kg^−1 Nimodipine (0.2 ml·10 g^−1) was administrated intragastrically to the positive control group; 100 mg·kg^−1 TMP (0.2 ml·10 g^−1) was administrated intragastrically to the TMP group, three different dosage of 200 mg·kg^−1, 100 mg·kg^−1, 50 mg·kg^−1 were administrated intragastrically to the LQC-T4 (0.2 ml·10 g^−1) group relatively, and 125 mg·kg^−1 TMP+80 mg·kg^−1 vanillitc acid (0.2 ml·10 g^−1) was administrated intragastrically respectively. The medicines were continuously administrated once a day for 10 days.
# The literature was referred to: [LiuZhenquan, SunHui, Xuqiuping, etc., Experimental Study on the Brain-Protective Effect of the Effective Fraction of Naoxin Formula in the Mouse Model of with Load-Bearing Swimming in Cold Water, Journal of Beijing University of Traditional Chinese Medicine [J], 2004, 27(4): 54-56] and the method recorded therein was improved. The head was rapidly cut with a scissor at post mortem when the mouse swam in 4° C. icy water for 3 min after the final administration. After head being cut, the buccal respiration duration of mouse was recorded.
# as §1
# [2] = system: chicken chorioallantoic membrane (CAM); test: Effect of LQC-T on CAM angiogenesis (CAM method, vessel count); assay type: in vivo; conditions: 20 μg/chicken embryo; for small vessel angiogenesis of CAM model, Medicine group (X ± S): 72 h incubation, number of small vessels, blank group 8.67 ± 1.03
# Description: Embryonated chicken eggs of Lohmann of German, egg weight 50-60 g (embryo experiment center of Chinese Agriculture University)
# LQC-T (1-6) (prepared by the methods of examples 2-7), wherein the purity was ≧98%, determined by high performance liquid chromatography (HPLC), meeting the requirements of the experiment. The powder was carefully sealed and preserved at 4° C.
# Aseptic gelatin sponge, which was made into a wafer having a diameter of 5 mm by a hole-puncher in advance, was used as sample carrier. The prepared LQC-T series compounds were added according to 20 μg/chicken embryo in an aseptic environment. The 0.9% physiological saline was used in a blank group. The samples were air-dried in an aseptic environment.
# A hatching egg after disinfection was put into a 37° C. incubation box with air sac upward until the seventh day of incubation. The egg embryo was disinfected using alcohol at a super clean bench, and then a small hole was drilled at the top of the egg embryo using a dental drill, and the nearby egg shell and shell membrane were removed carefully to form the opening with the size of about 1.2 cm×1.2 cm. After spotting the location for applying the sample, the air sac was broken with injection needle at the interface between air sac and the yolk and then 1-2 drops of aseptic physiological saline was injected so that the air sac membrane was separated from CAM membrane. Then the upper air sac membrane was slightly removed with a nipper to expose the lower CAM membrane.
# The medicine-containing carrier was softly put by a nipper at the locations of CAM and yolk cyst membrane with fewer vessels, the opening was then sealed with aseptic transparent tape and incubation was continued for another 72 h.
# After the incubation, the transparent tape blocking the chicken embryo air sac was removed with a nipper. The liquid of equal-volumetrically mixed methanol/acetone 1-2 ml was added and fixed at room temperature for 10 min. The CAM membrane was carefully removed and put it onto a slide. Then it was observed and a photograph was taken. The effect of the compounds on angiogenesis was evaluated by the count analytic method using the numbers of great vessels, medium vessels and small vessels arranged radially around by the carrier.
# All the data were statistically analyzed using SPSS11.0 software pack. The difference between the administration group and the blank group was given through one-way variance analysis. P<0.05 had statistical significance.
molecule,measurement,setting,value
"COc1cc(C(=O)O)ccc1O [Vanillic acid, vanillic acid, reference compound]","MTT(A540), 24 h after the administration",[1],0.8820 ± 0.1469
same,respiration duration,ICR mice,35.73 ± 5.66 s
Cc1nc(C)c(COC(=O)/C=C/c2ccc(OCc3nc(C)c(C)nc3C)c(OCc3nc(C)c(C)nc3C)c2)nc1C [LQC-T6],"small vessel angiogenesis of CAM model, Medicine group (X ± S)",[2],8.83 ± 3.71
"COc1cc(C(=O)OCc2nc(C)c(C)nc2C)ccc1O [LQC-T3, (3,5,6-trimethylpyrazine-2-yl)methyl-3-methoxy-4-hydroxybenzoate]","small vessel angiogenesis of CAM model, Medicine group (X ± S)",[2],10.4 ± 2.16
"(3,5,6-trimethylpyrazin-2-yl)methyl 4-hydroxy-3-methoxybenzoate [LQC-T1]","small vessel angiogenesis of CAM model, Medicine group (X ± S)",[2],12.7 ± 2.73
"Cc1nc(C)c(COC(=O)c2ccc(OCc3nc(C)c(C)nc3C)c(OCc3nc(C)c(C)nc3C)c2)nc1C [LQC-T2, (3,5,6-trimethylpyrazine-2-yl)methyl-3,4-bis((3,5,6-trimethylpyrazine-2-yl)methoxy) benzoate]","small vessel angiogenesis of CAM model, Medicine group (X ± S)",[2],14.17 ± 1.47
same,effect on growth of new (small) vessels compared with the blank group,[2]; result in words,significant promoting effect
"Cc1nc(C)c(COc2ccc(C=O)cc2OCc2nc(C)c(C)nc2C)nc1C [LQC-T5, 3,4-bis((3,5,6-trimethylpyrazine-2-yl)methoxy)benzaldehyde]","small vessel angiogenesis of CAM model, Medicine group (X ± S)",[2],14.17 ± 5.19
